According to paper PMC6349357, “Computational and experimental analysis of bioactive peptide linear motifs in the integrin adhesome” (PLoS ONE, 2019):

Key:
[1] = test system: resting platelets; experiment: Platelet aggregation induced by peptide in resting washed platelets (activation); type: cell-based, human (healthy volunteers); conditions: for Activation: platelet aggregation in resting platelets after 6 minutes incubation with peptide, pal-peptides 20 μM, tat-peptides 50 μM, optical density, aggregometer, mean, n>=3; for Activation / Activation, donor 20 08 13 / Activation, donor 14 06 13 / Activation, 5μM / Activation, 20μM: unit assumed; for Aggregation before TRAP activation, donor a: replicate donor a; for Aggregation before TRAP activation, donor a / Aggregation before TRAP activation, donor b / Aggregation before TRAP activation, donor c / Aggregation before TRAP activation, donor d / Aggregation before TRAP activation, donor e: pal 20 μM, tat 50 μM; for Aggregation before TRAP activation, donor b: replicate donor b; for Aggregation before TRAP activation, donor c: replicate donor c; for Aggregation before TRAP activation, donor d: replicate donor d; for Aggregation before TRAP activation, donor e: replicate donor e; for Activation, donor 20 08 13: replicate 20_08_13; for Activation, donor 20 08 13 / Activation, donor 22_08_13_DONOR1 / Activation, donor 22_08_13_DONOR2 / Activation, donor 14 06 13 / Activation, donor 18_06_13 / Activation, donor 20_06_13: SDC4 peptides and controls, 20 μM; for Activation, donor 22_08_13_DONOR1: replicate 22_08_13_DONOR1; for Activation, donor 22_08_13_DONOR2: replicate 22_08_13_DONOR2; for Activation, donor 14 06 13: replicate 14_06_13; for Activation, donor 18_06_13: replicate 18_06_13; for Activation, donor 18_06_13 / Activation, donor 20_06_13: in % (unit assumed); for Activation, donor 20_06_13: replicate 20_06_13; for Activation, 5μM / Activation, 20μM: S3 Table, n=3; for Activation, 5μM: peptide 5 μM; for Activation, 20μM: peptide 20 μM
Method: (§1) Blood was drawn from healthy volunteers into a syringe containing a final volume of 15% Acid Citrate Dextrose (ACD). The blood/ACD mixture was then aliquoted into 15 ml Cellstar tubes, at volumes of 5ml per tube, and centrifuged at 150 rcf for 10 minutes to obtain platelet rich plasma (PRP). PRP was then transferred to a 50ml tube using a pipette. The pH was then adjusted to 6.5. Prostaglandin (PGE1) was then added with a final concentration of 1μM. The PRP was then centrifuged at 750 rcf. After centrifugation the platelet poor plasma (PPP) was discarded and the pellet was resuspended in buffer A (6 mM dextrose, 130 mM NaCl, 9 mM NaHCO3, 10 mM sodium citrate, 10 mM Tris base, 3 mM KCl, 0.81 mM KH2PO4 and 0.9 mM MgCl26H2O, pH 7.4). A platelet concentration of 3x10^5/μl or 1x10^6/μl was obtained by dilution depending on the experiment in which they were used. Platelets were left to rest for 45 minutes and supplemented with 1.8mM calcium chloride prior to use.
(§2) A platelet concentration of 3x10^5 /μl was used when performing standard aggregations and a concentration of 1x10^6 /μl was used for sample preparation for western blot analysis. The extent of platelet aggregation was measured by quantifying the optical density of the samples using the Bio-Data PAP-8 aggregometer (platelet aggregation profiler, Horsham, PA, USA). A temperature of 37°C was maintained and samples were stirred using magnets spinning at 1100 rpm. 200 μl of washed platelets was added to each aggregation tube. Different volumes of buffer, peptide and TRAP were added to achieve the desired concentrations. Peptide/buffer was added to each well after two minutes. TRAP, with a final concentration depending on the experiment, was added 6 minutes later and data was collected for an additional 7 minutes.

[2] = test system: TRAP-activated platelets; experiment: Inhibition of TRAP-induced platelet aggregation after pre-incubation with peptide; type: cell-based, human (healthy volunteers); conditions: for Aggregation after TRAP activation, donor a: replicate donor a; for Aggregation after TRAP activation, donor a / Aggregation after TRAP activation, donor b / Aggregation after TRAP activation, donor c / Aggregation after TRAP activation, donor d / Aggregation after TRAP activation, donor e: pal 20 μM, tat 50 μM; for Aggregation after TRAP activation, donor b: replicate donor b; for Aggregation after TRAP activation, donor c: replicate donor c; for Aggregation after TRAP activation, donor d: replicate donor d; for Aggregation after TRAP activation, donor e: replicate donor e; for Summary of effects of SDC4-derived palmitylated peptides and scrambled controls, 20μM: S2 Table B / S2 Fig, activation of resting platelets and inhibition of aggregation induced by 4 μM TRAP, in words; for Inhibition, donor 20_08_13: replicate 20_08_13; for Inhibition, donor 14_06_13: replicate 14_06_13; for Inhibition, donor 18_06_13: replicate 18_06_13; for Inhibition, donor 20_06_13: replicate 20_06_13; for Aggregation (inhibition effects of syndecan-derived peptides): S2 Table A, n=6
Method: as §1, §2

[3] = platelet aggregation induced by 4 μM TRAP in platelets pre-incubated with peptide (low value = inhibition), pal-peptides 20 μM, tat-peptides 50 μM, mean, n>=3
[4] = replicate 22_08_13_DONOR1, peptide 20 μM, TRAP 4 μM
[5] = replicate 22_08_13_DONOR2, peptide 20 μM, TRAP 4 μM
[6] = S3 Table, peptide 5 μM, aggregation after TRAP, n=3
[7] = S3 Table, peptide 20 μM, aggregation after TRAP, n=3

Row | Substance | Activation, donor 20 08 13 [1] | Activation, donor 22_08_13_DONOR1 [1] | Activation, donor 22_08_13_DONOR2 [1] | Summary of effects of SDC4-derived palmitylated peptides and scrambled controls, 20μM [2] | Inhibition, donor 20_08_13 ([2]; peptide 20 μM, TRAP 4 μM) | Platelet aggregation remaining after TRAP (low = inhibition) [2, 4] | Platelet aggregation remaining after TRAP (low = inhibition) [2, 5] | Activation, donor 14 06 13 [1] | Activation, donor 18_06_13 [1] | Activation, donor 20_06_13 [1] | Inhibition, donor 14_06_13 ([2]; peptide 20 μM, TRAP 4 μM) | Inhibition, donor 18_06_13 ([2]; peptide 20 μM, TRAP 4 μM) | Inhibition, donor 20_06_13 ([2]; peptide 20 μM, TRAP 4 μM) | Activation, 5μM [1] | Activation, 20μM [1] | Platelet aggregation remaining after TRAP (low = inhibition) [2, 6] | Platelet aggregation remaining after TRAP (low = inhibition) [2, 7] | other results
1 | GIESMSQDTEVRSRVVGGS-tat [PTPN1-tat, PTPN1 peptide with C-terminal tat] | – | – | – | – | – | – | – | – | – | – | – | – | – | – | – | – | – | Activation [1]: 3%; Aggregation before TRAP activation, donor a [1]: 3; Aggregation before TRAP activation, donor b [1]: 4; Aggregation before TRAP activation, donor c [1]: 5; Aggregation before TRAP activation, donor d [1]: 4; Aggregation before TRAP activation, donor e [1]: 3; Platelet aggregation remaining after TRAP (low = inhibition) [2, 3]: 77; Aggregation after TRAP activation, donor a ([2]; TRAP 4 μM): 73; Aggregation after TRAP activation, donor b ([2]; TRAP 4 μM): 76; Aggregation after TRAP activation, donor c ([2]; TRAP 4 μM): 83; Aggregation after TRAP activation, donor d ([2]; TRAP 4 μM): 75; Aggregation after TRAP activation, donor e ([2]; TRAP 4 μM): 79
2 | IGLPKKKYK [pal-SDC4_middle Control 2, scrambled control of pal-SDC4_middle, reference compound] | 12% | 17 | 12 | Inhibitor and mild activator | 40 | 19 | 46 | – | – | – | – | – | – | – | – | – | – | –
3 | KIKGPKLKY [pal-SDC4_middle Control 1, scrambled control of pal-SDC4_middle, reference compound] | 5% | 6 | 5 | Inhibitor and mild activator | 8 | 5 | 10 | 4% | 4 | 0 | 8 | 9 | 2 | – | – | – | – | –
4 | KLSQLTSLLSSIE-tat [INPP5D-tat, INPP5D peptide with C-terminal tat] | – | – | – | – | – | – | – | – | – | – | – | – | – | – | – | – | – | Activation [1]: 4%; Aggregation before TRAP activation, donor a [1]: 4; Aggregation before TRAP activation, donor b [1]: 8; Aggregation before TRAP activation, donor c [1]: 2; Aggregation before TRAP activation, donor d [1]: 3; Aggregation before TRAP activation, donor e [1]: 4; Platelet aggregation remaining after TRAP (low = inhibition) [2, 3]: 74; Aggregation after TRAP activation, donor a ([2]; TRAP 4 μM): 70; Aggregation after TRAP activation, donor b ([2]; TRAP 4 μM): 77; Aggregation after TRAP activation, donor c ([2]; TRAP 4 μM): 76; Aggregation after TRAP activation, donor d ([2]; TRAP 4 μM): 75; Aggregation after TRAP activation, donor e ([2]; TRAP 4 μM): 73
5 | MGYRKEDKDKS [pal-SDC4_JM Control 2, scrambled control of pal-SDC4_JM, reference compound] | 2% | 1 | 2 | Inhibitor | 4 | 3 | 14 | – | – | – | – | – | – | – | – | – | – | –
6 | NSDTPPRPDRLPL-tat [PTPN12-tat, PTPN12 peptide with C-terminal tat] | – | – | – | – | – | – | – | – | – | – | – | – | – | – | – | – | – | Activation [1]: 3%; Aggregation before TRAP activation, donor a [1]: 3; Aggregation before TRAP activation, donor b [1]: 4; Aggregation before TRAP activation, donor c [1]: 4; Aggregation before TRAP activation, donor d [1]: 4; Aggregation before TRAP activation, donor e [1]: 3; Platelet aggregation remaining after TRAP (low = inhibition) [2, 3]: 75; Aggregation after TRAP activation, donor a ([2]; TRAP 4 μM): 73; Aggregation after TRAP activation, donor b ([2]; TRAP 4 μM): 76; Aggregation after TRAP activation, donor c ([2]; TRAP 4 μM): 76; Aggregation after TRAP activation, donor d ([2]; TRAP 4 μM): 75; Aggregation after TRAP activation, donor e ([2]; TRAP 4 μM): 78
7 | NTYAFKAKEP [pal-KK-SDC4_tail Control 1, scrambled control of pal-KK-SDC4_tail, reference compound] | 3% | 1 | 3 | No effect | 70 | 76 | 74 | – | – | – | – | – | – | – | – | – | – | –
8 | Pal-KKAPTNEFYA [Pal-KK-SDC4-tail, palmitylated, slightly extended SDC4 tail peptide …] | 3% | 1 | 1 | Inhibitor | 4 | 2 | 12 | 2% | -1 | 2 | 65 | 64 | 71 | 2% | 1% | 63 | 36 | Aggregation after TRAP, peptide alone 1x (A 1x / B 1x) ([2]; TRAP 2 μM after 6 minutes pre-incubation, 4 μM pal-peptides, 10 μM tat-peptides, mean n = 3): 64.67; Aggregation after TRAP, peptide alone 2x (A 2x / B 2x) ([2]; TRAP 2 μM after 6 minutes pre-incubation, double concentration of 4 μM (pal) / 10 μM (tat), mean n = 3): 3
9 | Pal-LGKKPIYKK-APTNEFYA [pal-SDC4-middle U SDC4-tail, palmitylated chimeric peptide of SDC4 middle and tail regions] | 4% | 1 | 4 | – | 6 | 2 | 6 | 3% | 3 | -2 | 5 | 5 | 7 | 3% | 2% | 63 | 5 | Aggregation (inhibition effects of syndecan-derived peptides) ([2]; peptide 20 μM, TRAP 4 μM, mean): 5
10 | Pal-RMKKKDEGSYD-APTNEFYA [pal-SDC4-JM U SDC4-tail, palmitylated chimeric peptide of SDC4 juxtamembrane and tail regions] | 3% | 1 | 2 | – | 70 | 62 | 68 | 3% | 2 | 2 | 75 | 62 | 81 | 2% | 2% | 63 | 69 | Aggregation (inhibition effects of syndecan-derived peptides) ([2]; peptide 20 μM, TRAP 4 μM, mean): 69
11 | Pal-RMKKKDEGSYD-LGKKPIYKK [pal-SDC4-JM U SDC4-middle, palmitylated chimeric peptide of SDC4 juxtamembrane and middle regions] | 6% | 6 | 7 | – | 12 | 8 | 14 | 0% | 2 | 1 | 26 | 9 | 47 | 2% | 4% | 61 | 19 | Aggregation (inhibition effects of syndecan-derived peptides) ([2]; peptide 20 μM, TRAP 4 μM, mean): 19
